Experimental data as given in patent US20040047865A1, “Compositions and their uses” (priority 1995, published 2004).

Assays:
[1] = system: XNA IgG, normal porcine endothelial cells (PAE-68#4); assay: Two stage chromium release assay, inhibition of lysis by affinity-isolated IgG in the presence of sugars (FIG. 3); format: cell-based; conditions: IgG 80 μg/ml
Protocol: (§1) Briefly normal porcine endothelial cells were grown to confluence in 96well plates before being washed and labelled with ^51chromium. Excess label was removed and the cells were exposed to different concentrations of XNA. Unbound antibody was removed and 1/8 baby rabbit complement added for 1 hour at 37° C. Cell lysis was expressed as a percentage of the total counts associated with the endothelial cells, which could be detected in the medium after incubation of the cells with complement. […] Affinity-isolated IgM (10 μg/ml) or IgG (80 μg/ml) was incubated with endothelial cells as before in the presence of varying concentrations of four different sugar preparations. The cells were then washed and exposed to baby rabbit complement as previously described.

[2] = system: porcine endothelial cells; conditions: Neethling et al 1994; cited from earlier work
[3] = system: XNA IgM, normal porcine endothelial cells (PAE-68#4); assay: Two stage chromium release assay, inhibition of lysis by affinity-isolated IgM in the presence of sugars (FIG. 3); format: cell-based; conditions: IgM 10 μg/ml
Protocol: as §1

pig endothelial cells = conditions: infusion into baboons; Ye et al 1994; cited from earlier work

Row | Compound | inhibition of cell lysis / IgG binding [1] | inhibition of the cytotoxic effects of human serum on porcine endothelial cells [2] | inhibition of cell lysis / XNA IgM binding [3] | protection of pig endothelial cells from killing by serum of infused baboons (pig endothelial cells)
1 | OC[C@H]1O[C@H](O[C@H]2[C@@H](O)[C@@H](CO)OC(O)[C@@H]2O)[C@H](O)[C@@H](O)[C@H]1O (stereo partly shown) [B-disaccharide, Galα1,3Gal] | minimal difference | best inhibitors |  | 
2 | CC(=O)N[C@H]1C(O)O[C@H](CO)[C@@H](O[C@@H]2O[C@H](CO)[C@H](O)[C@H](O[C@H]3O[C@H](CO)[C@H](O)[C@H](O)[C@H]3O)[C@H]2O)[C@@H]1O (stereo partly shown) [B-trisaccharide, Galα1,3Galβ1,4GlcNAc] | minimal difference | best inhibitors | superior to B-disaccharide | 
3 | OC[C@H]1O[C@H](OCC2O[C@@H](O)[C@H](O)[C@@H](O)[C@@H]2O)[C@H](O)[C@@H](O)[C@H]1O (stereo partly shown) [melibiose] |  |  |  | A level of protection was afforded
4 | arabinogalactan |  |  |  | A level of protection was afforded
